# pIC50: −log10 of the molar value. Active and inactive are the calls of the source. The calls are words filed in the database; no cut-off is given here.
# Assays:
# [1] = tested on: A2780; assay: Cytotoxicity against human A2780 cells after 72 hrs by CCK8 assay; type: functional, cell-based; settings: A2780, 72 h
# [2] = tested on: HeLa; assay: Cytotoxicity against human HeLa cells after 72 hrs by CCK8 assay; type: functional, cell-based
# [3] = tested on: LoVo; assay: Cytotoxicity against human LoVo cells after 72 hrs by CCK8 assay; type: functional, cell-based
# [4] = tested on: MCF7; assay: Cytotoxicity against human MCF7 cells after 72 hrs by CCK8 assay; type: functional, cell-based; settings: MCF7, 72 h
# [5] = tested on: M059J; assay: Cytotoxicity against human M059J cells after 72 hrs by CCK8 assay; type: functional, cell-based
# [6] = tested on: A2780; assay: Genotoxicity in human A2780 cells assessed as induction of DNA damage at 500 uM after 1 hr under alkaline condition by comet assay relative to control; type: functional
# [7] = tested on: HeLa; assay: Genotoxicity in human HeLa cells assessed as induction of DNA damage at 500 uM after 1 hr under alkaline condition by comet assay relative to control; type: functional
# [8] = tested on: LoVo; assay: Genotoxicity in human LoVo cells assessed as induction of DNA damage at 500 uM after 1 hr under alkaline condition by comet assay relative to control; type: functional
# [9] = tested on: MCF7; assay: Genotoxicity in human MCF7 cells assessed as induction of DNA damage at 500 uM after 1 hr under alkaline condition by comet assay relative to control; type: functional
# [10] = tested on: M059J; assay: Genotoxicity in human M059J cells assessed as induction of DNA damage at 500 uM after 1 hr under alkaline condition by comet assay relative to control; type: functional
# [11] = tested on: A2780; assay: Induction of DNA fragmentation in human A2780 cells assessed as viable cells at 0.115 uM after 24 hrs by BrdU/FITC staining-based TUNEL assay (reference value: 96.1%); type: functional; settings: A2780, 24 h, read-out: Activity
# [12] = tested on: A2780; assay: Induction of DNA fragmentation in human A2780 cells assessed as apoptotic cells at 0.115 uM after 24 hrs by BrdU/FITC staining-based TUNEL assay (reference value: 3.9%); type: functional
# [13] = tested on: A2780; assay: Induction of DNA fragmentation in human A2780 cells assessed as viable cells at 460.6 uM after 24 hrs by BrdU/FITC staining-based TUNEL assay (reference value: 96.1%); type: functional; settings: A2780, 24 h, read-out: Activity
# [14] = tested on: A2780; assay: Induction of DNA fragmentation in human A2780 cells assessed as apoptotic cells at 460.6 uM after 24 hrs by BrdU/FITC staining-based TUNEL assay (reference value: 3.9%); type: functional
# [15] = tested on: LoVo; assay: Induction of DNA fragmentation in human LoVo cells assessed as viable cells at 0.115 uM after 24 hrs by BrdU/FITC staining-based TUNEL assay (reference value: 99.2%); type: functional; settings: read-out: Activity
# [16] = tested on: LoVo; assay: Induction of DNA fragmentation in human LoVo cells assessed as apoptotic cells at 0.115 uM after 24 hrs by BrdU/FITC staining-based TUNEL assay (reference value: 0.8%); type: functional
# [17] = tested on: LoVo; assay: Induction of DNA fragmentation in human LoVo cells assessed as viable cells at 460.6 uM after 24 hrs by BrdU/FITC staining-based TUNEL assay (reference value: 99.2%); type: functional; settings: read-out: Activity
# [18] = tested on: LoVo; assay: Induction of DNA fragmentation in human LoVo cells assessed as apoptotic cells at 460.6 uM after 24 hrs by BrdU/FITC staining-based TUNEL assay (reference value: 0.8%); type: functional
# [19] = tested on: A2780; assay: Induction of oxidative stress in human A2780 cells assessed as increase in ROS level in cytoplasm at IC20 after 1 hr by H2DCF-DA probe based fluorescence assay; type: functional, cell-based
# [20] = tested on: A2780; assay: Induction of oxidative stress in human A2780 cells assessed as increase in ROS level in cytoplasm at IC50 after 1 hr by H2DCF-DA probe based fluorescence assay; type: functional, cell-based
# [21] = tested on: A2780; assay: Induction of apoptosis in human A2780 cells assessed as viable cells at 0.115 uM after 24 hrs by Annexin-V-FITC/propidium iodide staining-based flow cytometric analysis (reference value: 93.9%); type: functional; settings: A2780, 24 h, read-out: Activity
# [22] = tested on: A2780; assay: Induction of apoptosis in human A2780 cells assessed as apoptotic cells at 0.115 uM after 24 hrs by Annexin-V-FITC/propidium iodide staining-based flow cytometric analysis (reference value: 2%); type: functional
# [23] = tested on: A2780; assay: Induction of apoptosis in human A2780 cells assessed as necrotic cells at 0.115 uM after 24 hrs by Annexin-V-FITC/propidium iodide staining-based flow cytometric analysis (reference value: 4.1%); type: functional
# [24] = tested on: A2780; assay: Induction of apoptosis in human A2780 cells assessed as viable cells at 460.6 uM after 24 hrs by Annexin-V-FITC/propidium iodide staining-based flow cytometric analysis (reference value: 93.9%); type: functional; settings: A2780, 24 h, read-out: Activity
# [25] = tested on: A2780; assay: Induction of apoptosis in human A2780 cells assessed as apoptotic cells at 460.6 uM after 24 hrs by Annexin-V-FITC/propidium iodide staining-based flow cytometric analysis (reference value: 2%); type: functional
# [26] = tested on: A2780; assay: Induction of apoptosis in human A2780 cells assessed as necrotic cells at 460.6 uM after 24 hrs by Annexin-V-FITC/propidium iodide staining-based flow cytometric analysis (reference value: 4.1%); type: functional
# [27] = tested on: LoVo; assay: Induction of apoptosis in human LoVo cells assessed as viable cells at 0.106 uM after 24 hrs by Annexin-V-FITC/propidium iodide staining-based flow cytometric analysis (reference value: 89.7%); type: functional; settings: read-out: Activity
# [28] = tested on: LoVo; assay: Induction of apoptosis in human LoVo cells assessed as apoptotic cells at 0.106 uM after 24 hrs by Annexin-V-FITC/propidium iodide staining-based flow cytometric analysis (reference value: 7.9%); type: functional
# [29] = tested on: LoVo; assay: Induction of apoptosis in human LoVo cells assessed as necrotic cells at 0.106 uM after 24 hrs by Annexin-V-FITC/propidium iodide staining-based flow cytometric analysis (reference value: 2.9%); type: functional
# [30] = tested on: LoVo; assay: Induction of apoptosis in human LoVo cells assessed as viable cells at 426 uM after 24 hrs by Annexin-V-FITC/propidium iodide staining-based flow cytometric analysis (reference value: 89.7%); type: functional; settings: read-out: Activity
# [31] = tested on: LoVo; assay: Induction of apoptosis in human LoVo cells assessed as apoptotic cells at 426 uM after 24 hrs by Annexin-V-FITC/propidium iodide staining-based flow cytometric analysis (reference value: 7.9%); type: functional
# [32] = tested on: LoVo; assay: Induction of apoptosis in human LoVo cells assessed as necrotic cells at 426 uM after 24 hrs by Annexin-V-FITC/propidium iodide staining-based flow cytometric analysis (reference value: 2.9%); type: functional
structure (smiles),measurement,setting,value
CC(=O)OC[C@H]1O[C@@H](O[C@H]2[C@H](OC(C)=O)[C@@H](OC(C)=O)[C@H](S[C@@H]3CC(=O)[C@@H]4OC[C@H]3O4)O[C@@H]2COC(C)=O)[C@H](OC(C)=O)[C@@H](OC(C)=O)[C@H]1OC(C)=O,IC20,[1],0.115 µM
same,pIC50,[1],3.34
same,pIC50,[2],3.06
same,IC20,[3],106 µM
same,pIC50,[3],3.37
same,pIC50,[4],3.04
same,pIC50,[5],3.08
same,Activity,[6],<10%
same,Activity,[7],<10%
same,Activity,[8],10 - 20%
same,Activity,[9],<10%
same,Activity,[10],<10%
same,viability at 0.115 µM,[11],85.5%
same,Activity,[12],15.5%
same,viability at 460.6 µM,[13],59%
same,Activity,[14],41%
same,viability at 0.115 µM,[15],96.7%
same,Activity,[16],6.3%
same,viability at 460.6 µM,[17],90.6%
same,Activity,[18],9.4%
same,Activity,[19],inactive
same,Activity,[20],inactive
same,viability at 0.115 µM,[21],91.6%
same,Activity,[22],7%
same,Activity,[23],1.4%
same,viability at 460.6 µM,[24],71.4%
same,Activity,[25],22.9%
same,Activity,[26],5.7%
same,viability at 0.106 µM,[27],82%
same,Activity,[28],12.5%
same,Activity,[29],5.5%
same,viability at 426 µM,[30],71.2%
same,Activity,[31],16.3%
same,Activity,[32],12.6%

# From ChEMBL document CHEMBL4020779, “Thio-functionalized carbohydrate thiosemicarbazones and evaluation of their anticancer activity” (Bioorg Med Chem Lett, 2017)
